How the values were obtained:
[1] = system: antibody level of hemolysin; assay: Circulating antibody level test on sheep red blood cells (cyclophosphamide immunodeficient mice); assay type: in vivo; conditions: 0.03 g/kg gastric infusion 7 days; cyclophosphamide-treated mice; OD 540 nm
Protocol: The anti-inflammatory effects of the extract compositions AB and ABC were determined for a series of treatment groups through the circulating antibody level test on sheep red blood cells.
Mice weighing 20-25 g were used in this study. Each group comprised an equal number of male and female animals. Rearing temperature was 23±2° C. The mice were divided into nine groups with 10 rats each: (1) blank control, (2) model control, (3) AB high dosage (15 g/kg), (4) AB mid dosage (7.5 g/kg), (5) AB low dosage (3.75 g/kg), (6) ABC high dosage (13.0 g/kg), (7) ABC mid dosage (7.66 g/kg), (8) ABC low dosage (3.83 g/kg), and (9) levamisole (0.03 g/kg).
The treatments of placebo and extract compositions were administered to each of the mice by gastric infusion for a period of 7 days. On the 2nd, 4th, and 6th day, each mouse, with the exception of those in the blank control group, was injected intraperitoneally with 50 mg/10 ml/kg of cyclophosphamide. Mice in the blank control group were injected intraperitoneally with saline of the same volume. Three days following administration of the final treatment (on day 7), all mice were each immunized by intraperitoneal injections of 0.2 ml of sheep erythrocyte suspension (5% of sheep erythrocyte in saline). […] The absorbance for each supernatant sample was recorded as an index of serum hemolytic level. […]

[2] = system: peritoneal macrophage phagocytosis; assay: Peritoneal macrophage phagocytosis in mice (India ink clearance, cyclophosphamide); assay type: in vivo; conditions: 0.03 g/kg gastric infusion 7 days; cyclophosphamide-treated mice
[3] = system: type 1 FM1 influenza virus; assay: Inhibition of the FM1 influenza virus in mice (lung index); assay type: in vivo, NIH mice
[4] = system: permeability of the intraperitoneal blood capillary; assay: Anti-inflammatory effect: permeability of the intraperitoneal blood capillary (acetic acid, Evans blue); assay type: in vivo, NIH mice; conditions: 0.15 g/kg intragastric once a day, 3 days; acetic acid i.p.; OD 570 nm
Protocol: The anti-inflammatory effects of the extract compositions AB and ABC were determined for a series of treatment groups through measurement of the permeability of the intraperitoneal blood capillary.
NIH mice, weighing 20±2 g, were used in this experiment. […] The rearing temperature was 23±2° C. The mice were randomly divided into nine groups with 10 mice in each group: (1) blank control, (2) model control, (3) AB high dosage (15 g/kg), (4) AB mid dosage (7.5 g/kg), (5) AB low dosage (3.75 g/kg), (6) ABC high dosage (13.0 g/kg), (7) ABC mid dosage (7.66 g/kg), (8) ABC low dosage (3.83 g/kg), and (9) sodium salicylate group (0.15 g/kg).
An acetic normal saline solution was prepared by dissolving about a 0.4% of glacial acetic acid in 50 ml of a normal saline solution.
A 2% Evans blue normal saline solution was prepared by dissolving 2 g of Evans blue in 100 ml of normal saline solution. […]
About twenty minutes following the receipt of the saline injections, each mouse was sacrificed by breaking its cervical vertebrae. […] The supernatant was then collected and the absorbance or optical density (OD) of the supernatant was measured at 570 nm using a spectrophotometer. The experimental data was analyzed. Data was assessed using the t-test to determine statistically significant differences between the results of each of the groups. […]

[5] = system: foot swelling induced by carrageenan; assay: Rat foot swelling induced by carrageenan; assay type: in vivo, Rats; conditions: 0.15 g/kg oral once a day, 4 days
Protocol: The anti-inflammatory effects of the extract compositions AB and ABC were determined for a series of treatment groups through measurement of the foot swelling of rat paws following the administration of carrageenan.
Rats weighing 200±20 g were used in this experiment. Each test group comprised the same number of male and female animals. Rearing temperature was 23±2° C. The rats were divided into eight groups with 10 rats each: (1) model control, (2) AB high dosage (15 g/kg), (3) AB mid dosage (7.5 g/kg), (4) AB low dosage (3.75 g/kg), (5) ABC high dosage (13.0 g/kg), (6) ABC mid dosage (7.66 g/kg), (7) ABC low dosage (3.83 g/kg), (8) sodium salicylate group (0.15 g/kg), […]. There was no blank control in this experiment as there is no swelling of an animal paws where carrageenan is not administered
The method for conducting this experiment followed the guidelines outlined in the Manual on Studies of New Medicines of TCM by the Drug Administration Ministry of Health P.R.C. The method outlined in the manual details the following steps:
1. Draw a clear transverse line situated on the upper and front angles of the left back paw of each rat with a ballpoint pen;
2. Measure the paw volume of each rat;
3. Subcutaneously inject each rat, except those in the blank control group, with a dose of carrageenan (0.05 ml/paw) into the metatarsus of the hindlimb;
4. Orally administer one of the treatments of the AB extract, ABC extract, or sodium salicylate as per the above-noted dosages once a day for a period of 4 days. Rats in the model control group and blank were injected with saline of the same volume;
5. On the morning of the 4th day, one hour following the last administration of the final treatment, subcutaneously inject carrageenan (0.05 ml/paw) into the metatarsus of hindlimb of each rat;
6. Measure the paw volume at each of 1 hour, 2 hours, 3 hours, and 4 hours following the second carrageenan administration; and
7. Calculate the paw swelling percentage for each rat.
The swelling percentage was calculated by the following formula: Swelling percentage=((swelling volumes of rat paw after inflammation−swelling volumes of rat paw before inflammation)/swelling volumes of rat paw before inflammation)×100%
The experimental data was analyzed using the t-test to determine statistically significant differences between the results of each of the groups. There was no swelling in the paws of rats in the blank control group. The anti-inflammatory effects of the AB and ABC herbal extract compositions and sodium salicylate were considered to be effective when P was less than 0.05.

[6] = […], 0.07 g/kg intragastric once a day, 3 days, day 4

Compound: c1ccc([C@H]2CN3CCSC3=N2)cc1 [Levamisole, levamisole]
- OD value of hemolysin [1]: 0.75 ± 0.006
- Phagocytic coefficient (K) [2]: 0.046 ± 0.007
- Phagocytic coefficient index (α) [2]: 6.76 ± 0.43

Compound: NC(=O)c1ncn([C@@H]2O[C@H](CO)[C@@H](O)[C@H]2O)n1 [Ribavirin]
- Lung Index [3, 6]: 1.19 ± 0.30 g/g
- Weight [3, 6]: 14.94 ± 1.64 g
- The rate of inhibition of lung index ([3]; mouse, in vivo): 32.38%

Compound: O=C([O-])c1ccccc1O.[Na+] [Sodium salicylate, sodium salicylate]
- OD value of haemolysin in serum [4]: 0.305 ± 0.060
- Paw swelling ([5]; 1 h after carrageenan): 0.490 ± 0.202 mL
- Paw swelling ([5]; 2 h after carrageenan): 0.405 ± 0.195 mL
- Paw swelling ([5]; 3 h after carrageenan): 0.265 ± 0.153 mL
- Paw swelling ([5]; 4 h after carrageenan): 0.170 ± 0.136 mL

Source: patent US9186385B2 (priority 2009, dated 2015)
